{"source": "patent US8012983B2", "about": "“Substituted triazolopyrazines useful for the treatment of degenerative and inflammatory diseases” (Galapagos NV, priority 2008, dated 2011)", "test_system": "MMP13 expression in SW1353 chondrosarcoma cell line", "assay": "MMP13 assay: IL-1/OSM-driven MMP13 expression in SW1353 cells (MMP13 ELISA)", "assay_type": "cell-based", "conditions": "Homo sapiens, IL-1β and OSM, 48 hr", "experimental": "The protocol of the MMP13 ELISA is described in section 4.1, then testing of compounds on release of IL-1/OSM-driven MMP13 expression in SW1353 chondrosarcoma cell line is described in section 4.2.\nA 384 well format ELISA for measurement of MMP13 was developed. Various primary antibodies were tested, as well as various ELISA protocols. The following protocol is developed and validated to measure MMP13 levels in supernatant of cell cultures in 384 well plates.\nBlack maxisorb 384 well plates (Nunc 460518) are coated with 35 μl of a buffered solution containing 1.5 μg/mL anti-MMP13 antibody MAB511 (R&D systems). The antibody is diluted in carbonate-bicarbonate coating buffer (1.59 g Na2CO3 (Sigma S-7795) and 2.93 g NaHCO3 (Sigma S-5761) in 1 L MilliQ water, adjusted to pH 9.6). After overnight incubation at 4° C., wells are washed twice with 100 μL PBST (80 g NaCl, 2 g KCl (Sigma), 11.5 g Na2HPO4.7H2O and 2 g KH2PO4 in 10 L milliQ water; pH 7.4+0.05% Tween-20 (Sigma)) and blocked with 100 μL/well blocking buffer (5% non fat dry milk in PBS). After overnight incubation at 4° C., wells are washed twice with 100 μL PBST. The PBST is removed and 35 μL of sample is transferred to the ELISA plates. After 4 hr incubation at RT, plates are washed twice with PBST and incubated for 1 hr at 37° C. with 35 μL/well 1.5 mM APMA solution (a 10 mM APMA stock solution is prepared one day before (35.18 mg APMA (Sigma A-9563) in 10 mL 0.1M NaOH (Merck 1.06469.1000) and stored at 4° C. Before use, the 10 mM APMA stock solution is diluted to 1.5 mM in 1×APMA buffer (10× APMA buffer: 500 mM Tris (Roche 708976), 50 mM CaCl2 (Sigma C-5080), […] ZnCl2 (Sigma Z-0173), 1.5 M NaCl (Calbiochem 567441), 0.5% Brij35 (Sigma 430 AG-6) and adjust to pH 7.0). After activation of MMP13 by APMA, plates are washed again two times with 100 μL PBST/well and 35 μL of substrate solution is added to each well. Substrate solution is prepared as follows: OmniMMP Fluorescent substrate (Biomol P-126) stock solution (2 mM in DMSO, stored at −20° C.) is diluted in 1× OmniMMP buffer (10× OmniMMP buffer: 500 mM Hepes (Sigma H4034), 100 mM CaCl2 (Sigma C5080), 0.5% Brij35 (Sigma 430 AG-6; adjusted to pH 7.0) to a final concentration of 0.01 mM. After an overnight incubation at 37° C., the active MMP13 in the sample has cleaved the substrate and released fluorescence. Readout is performed on the EnVision (Perkin Elmer) using 320 nm excitation/405 nm emission filters.\nHuman chondrosarcoma cell line SW1353 was acquired from ATCC and grown in DMEM supplemented with 10% heat-inactivated FBS and 1× penicillin/streptomycin (Invitrogen) in a humidified 5% CO2 incubator at 37° C. Aliquots of the cells were frozen and cryopreserved in liquid nitrogen. Starting from a cryopreserved aliquot, cells are further grown by sub-culturing at a 1/5-1/8 ratio twice a week by trypsinisation.\nStarting from the compound master stocks (all at 10 mM concentration in 100% DMSO) a 3-fold serial dilution is made in 96-well plates in 100% DMSO. Then, plates are futher diluted 50-fold in M199 medium supplemented with 1% heat-inactivated FBS to obtain an intermediate work stock.\nAt day 1, SW1353 cells are seeded in 96-well plates (flat bottom, tissue culture treated, Greiner) at a density of 15000 cells/well in 120 μL growth medium. The next day, 15 μL compound out of the intermediate work stock is added. After an incubation period of 60 minutes, which allows the compounds to equilibrate and enter the cells, cells are stimulated with a mixture of IL-1β and OSM, added in a volume of 15 μL to obtain final concentrations of 1 ng/ml IL-1β and 25 ng/ml OSM. For that, stocks of IL-1 (10 μg/ml) and OSM (25 μg/ml) (both PeproTech) were diluted to 10 ng/ml and 250 ng/ml respectively, in M199 medium supplemented with 1% FBS. After incubation for 48 hr, the cell supernatant was harvested and an appropriate dilution was processed in the MMP13 ELISA as described above, delivering raw data (RFU: relative fluorescence units). […]", "data": [{"smiles": "CC(C)N1C[C@@H]2C[C@H]1CN2c1ccc(Nc2ncc(-c3cc(C(N)=O)n[nH]3)n3ncnc23)cn1", "note": "[Compound 15, 5-{8-(6-((1S,4S)-5-isopropyl-2,5-diazabicyclo[2.2.1]heptan-2-yl)pyridin-3-ylamino)-[1,2,4]triazolo[1,5-a]pyrazin-5-yl}-1H-pyrazole-3-carboxylic acid amide]", "values": [{"measurement": "IC50", "result": "> 1000", "unit": "nM"}]}, {"smiles": "CC(C)N1C[C@@H]2C[C@H]1CN2c1ccc(Nc2ncc(-c3coc(C(N)=O)c3)n3ncnc23)cc1", "note": "[Compound 2, 4-{8-[4-((1S,4S)-5-Isopropyl-2,5-diaza-bicyclo[2.2.1]hept-2-yl)-phenylamino]-[1,2,4]triazolo[1,5-a]pyrazin-5-yl}-furan-2-carboxamide]", "values": [{"measurement": "IC50", "result": "1 to 500", "unit": "nM"}]}, {"smiles": "CCOC(=O)c1cc(-c2cnc(Nc3ccc(N4C[C@@H]5C[C@H]4CN5C(C)C)cc3)c3ncnn23)[nH]n1", "note": "[Compound 21, Ethyl 5-(8-(4-((1S,4S)-5-isopropyl-2,5-diazabicyclo[2.2.1]heptan-2-yl)phenylamino)-[1,2,4]triazolo[1,5-a]pyrazin-5-yl)-1H-pyrazole-3-carboxylate]", "values": [{"measurement": "IC50", "result": "> 1000", "unit": "nM"}]}, {"smiles": "CCOc1cc(-c2cnc(Nc3ccc(N4C[C@@H]5C[C@H]4CN5C(C)C)cc3)c3ncnn23)ccn1", "note": "[Compound 19, 5-(2-ethoxypyridin-4-yl)-N-(4-((1S,4S)-5-isopropyl-2,5-diazabicyclo[2.2.1]heptan-2-yl)phenyl)-[1,2,4]triazolo[1,5-a]pyrazin-8-amine]", "values": [{"measurement": "IC50", "result": "> 1000", "unit": "nM"}]}, {"smiles": "CC(C)N1C[C@@H]2C[C@H]1CN2c1ccc(Nc2ncc(-c3coc(C(N)=O)c3)n3ccnc23)cc1", "note": "[Compound 4, 4-{8-[4-((1S,4S)-5-Isopropyl-2,5-diaza-bicyclo[2.2.1]hept-2-yl)-phenylamino]-imidazo[1,2-a]pyrazin-5-yl}-furan-2-carboxamide]", "values": [{"measurement": "IC50", "result": "> 1000", "unit": "nM"}]}, {"smiles": "CCOc1cc(-c2cnc(Nc3ccc(N4C[C@@H]5C[C@H]4CN5C(C)C)cc3)c3nccn23)ccn1", "note": "[Compound 22, 5-(2-ethoxypyridin-4-yl)-N-(4-((1S,4S)-5-isopropyl-2,5-diazabicyclo[2.2.1]heptan-2-yl)phenyl)imidazo[1,2-a]pyrazin-8-amine]", "values": [{"measurement": "IC50", "result": "> 1000", "unit": "nM"}]}, {"smiles": "CC(C)N1C[C@@H]2C[C@H]1CN2c1ccc(Nc2ncc(-c3noc(C(N)=O)n3)n3ncnc23)cc1", "note": "[Compound 23, 3-(8-(4-((1S,4S)-5-isopropyl-2,5-diazabicyclo[2.2.1]heptan-2-yl)phenylamino)-[1,2,4]triazolo[1,5-a]pyrazin-5-yl)-1,2,4-oxadiazole-5-carboxamide]", "values": [{"measurement": "IC50", "result": "> 1000", "unit": "nM"}]}, {"smiles": "CC(C)N1C[C@@H]2C[C@H]1CN2c1cccc(Nc2ncc(-c3coc(C(N)=O)c3)n3ccnc23)c1", "note": "[Compound 25, 4-(8-(3-((1S,4S)-5-isopropyl-2,5-diazabicyclo[2.2.1]heptan-2-yl)phenylamino)imidazo[1,2-a]pyrazin-5-yl)furan-2-carboxamide]", "values": [{"measurement": "IC50", "result": "> 1000", "unit": "nM"}]}, {"smiles": "CC(C)N1C2CCC1CN(c1ccc(Nc3ncc(-c4coc(C(N)=O)c4)n4ncnc34)cc1)C2", "note": "[Compound 12, 4-{8-(4-(8-isopropyl-3,8-diazabicyclo[3.2.1]octan-3-yl)phenylamino)[1,2,4]-triazolo[1,5-a]pyrazin-5-yl}-furan-2-carboxamide]", "values": [{"measurement": "IC50", "result": "> 1000", "unit": "nM"}]}, {"smiles": "CC(C)N1C[C@@H]2C[C@H]1CN2c1cccc(Nc2ncc(-c3coc(C(N)=O)c3)n3ncnc23)c1", "note": "[Compound 24, 4-(8-(3-((1S,4S)-5-isopropyl-2,5-diazabicyclo[2.2.1]heptan-2-yl)phenylamino)-[1,2,4]triazolo[1,5-a]pyrazin-5-yl)furan-2-carboxamide]", "values": [{"measurement": "IC50", "result": "> 1000", "unit": "nM"}]}, {"smiles": "CC(C)N1C[C@@H]2C[C@H]1CN2c1ccc(Nc2ncc(-c3cc(C(N)=O)n[nH]3)n3ncnc23)cc1", "note": "[Compound 5, 5-{8-(4-((1S,4S)-5-isopropyl-2,5-diazabicyclo[2.2.1]heptan-2-yl)phenyl-amino)-[1,2,4]triazolo[1,5-a]pyrazin-5-yl}-1H-pyrazole-3-carboxamide]", "values": [{"measurement": "IC50", "result": "> 1000", "unit": "nM"}]}, {"smiles": "CC(C)N1C[C@@H]2C[C@H]1CN2c1cccc(Nc2ncc(-c3ccc4c(c3)CNC4=O)n3ncnc23)c1", "note": "[Compound 26, 5-(8-(3-((1S,4S)-5-isopropyl-2,5-diazabicyclo[2.2.1]heptan-2-yl)phenylamino)-[1,2,4]triazolo[1,5-a]pyrazin-5-yl)isoindolin-1-one]", "values": [{"measurement": "IC50", "result": "> 1000", "unit": "nM"}]}, {"smiles": "CC(C)N1C[C@@H]2C[C@H]1CN2c1ccc(Nc2ncc(-c3ccc4c(c3)CNC4=O)n3ncnc23)cc1", "note": "[Compound 1, 5-{8-[4-((1S,4S)-5-Isopropyl-2,5-diaza-bicyclo[2.2.1]hept-2-yl)-phenylamino]-[1,2,4]triazolo[1,5-a]pyrazin-5-yl}-2,3-dihydro-isoindol-1-one]", "values": [{"measurement": "IC50", "result": "> 1000", "unit": "nM"}]}, {"smiles": "CC(C)(C)N1C[C@@H]2C[C@H]1CN2c1ccc(Nc2ncc(-c3coc(C(N)=O)c3)n3ncnc23)cc1", "note": "[Compound 3, 4-{8-[4-((1S,4S)-5-tert-Butyl-2,5-diaza-bicyclo[2.2.1]hept-2-yl)-phenylamino]-[1,2,4]triazolo[1,5-a]pyrazin-5-yl}-furan-2-carboxamide]", "values": [{"measurement": "IC50", "result": "1 to 500", "unit": "nM"}]}, {"smiles": "CC(C)N1CC2CCC1CN2c1ccc(Nc2ncc(-c3coc(C(N)=O)c3)n3ncnc23)cc1", "note": "(stereo not drawn) [Compound 9, 4-{8-(4-(5-isopropyl-2,5-diazabicyclo[2.2.2]octan-2-yl)phenylamino)[1,2,4]-triazolo[1,5-a]pyrazin-5-yl}-furan-2-carboxamide]", "values": [{"measurement": "IC50", "result": "> 1000", "unit": "nM"}]}, {"smiles": "CC(C)N1CC2CCC(C1)N2c1ccc(Nc2ncc(-c3coc(C(N)=O)c3)n3ccnc23)cc1", "note": "[Compound 11, 4-{8-(4-(3-isopropyl-3,8-diazabicyclo[3.2.1]octan-8-yl)phenylamino)-imidazo[1,2-a]pyrazin-5-yl}-furan-2-carboxamide]", "values": [{"measurement": "IC50", "result": "> 1000", "unit": "nM"}]}, {"smiles": "CC(C)N1C[C@@H]2C[C@H]1CN2c1ccc(Nc2ncc(-c3cc[nH]c(=O)c3)n3ncnc23)cc1", "note": "[Compound 20, 4-(8-(4-((1S,4S)-5-isopropyl-2,5-diazabicyclo[2.2.1]heptan-2-yl)phenylamino)-[1,2,4]triazolo[1,5-a]pyrazin-5-yl)pyridin-2(1H)-one]", "values": [{"measurement": "IC50", "result": "> 1000", "unit": "nM"}]}, {"smiles": "CC(C)(C)N1C[C@@H]2C[C@H]1CN2c1ccc(Nc2ncc(-c3cc(C(N)=O)n[nH]3)n3ncnc23)cc1", "note": "[Compound 17, 5-{8-(4-((1S,4S)-5-tert-butyl-2,5-diazabicyclo[2.2.1]heptan-2-yl)phenyl-amino)-[1,2,4]triazolo[1,5-a]pyrazin-5-yl}-1H-pyrazole-3-carboxylic acid amide]", "values": [{"measurement": "IC50", "result": "501 to 1000", "unit": "nM"}]}, {"smiles": "CC(C)N1C[C@@H]2C[C@H]1CN2c1ccc(Nc2ncc(-c3cc[nH]c(=O)c3)n3ccnc23)cc1", "note": "[Compound 8, 4-{8-(4-((1S,4S)-5-isopropyl-2,5-diazabicyclo[2.2.1]heptan-2-yl)phenyl-amino)imidazo[1,2-a]pyrazin-5-yl}-1H-pyridin-2-one]", "values": [{"measurement": "IC50", "result": "1 to 500", "unit": "nM"}]}, {"smiles": "CC(C)(C)N1C[C@@H]2C[C@H]1CN2c1ccc(Nc2ncc(-c3coc(C(N)=O)c3)n3ccnc23)cc1", "note": "[Compound 6]", "values": [{"measurement": "IC50", "result": "> 1000", "unit": "nM"}]}, {"smiles": "CC(C)N1C[C@@H]2C[C@H]1CN2c1ccc(Nc2ncc(-c3ccc4c(c3)CNC4=O)n3ncnc23)cn1", "note": "[Compound 18, 5-{8-(6-((1S,4S)-5-isopropyl-2,5-diazabicyclo[2.2.1]heptan-2-yl)pyridin-3-ylamino)-[1,2,4]triazolo[1,5-a]pyrazin-5-yl}-2,3-dihydro-isoindol-1-one]", "values": [{"measurement": "IC50", "result": "> 1000", "unit": "nM"}]}]}
